Where two headings read alike, the source gives them in different places.
Key:
melanoma cell lines = assay: Cell based assay, cell viability (CellTiter-Glo), melanoma cell lines; details: Homo sapiens; LOX-IMVI cell line
How it was run: (§1)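 Read-out is ATP-dependent luminescence (CellTiter-Glo) taken after 72 h of exposure to compound at final concentrations from 0 to 2 μM. Cells were plated 24 h beforehand.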

[1] = system: colorectal cancer cell lines (e.g. DLD-1, HCT 116, SW620, HCT-15, HCT-8, RKO); assay: Cell based assay, cell viability (CellTiter-Glo), colorectal cancer cell lines; details: Homo sapiens, 72 hours treatment
How it was run: as §1

[2] = system: ovarian cancer cell lines; assay: Cell based assay, cell viability (CellTiter-Glo), ovarian cancer cell lines; details: Homo sapiens; OVCAR-3 cells
How it was run: as §1

[3] = DLD-1 cells, read-out: IC50, colorectal cancer cell line DLD-1
[4] = HCT 116 cells, read-out: IC50, colorectal cancer cell line HCT 116
[5] = HCT-8 cells, read-out: IC50, colorectal cancer cell line HCT-8
[6] = HCT-15 cells, read-out: IC50, colorectal cancer cell line HCT-15
[7] = HT-29 cells, read-out: IC50, colorectal cancer cell line HT-29
[8] = LoVo cells, read-out: IC50, colorectal cancer cell line LoVo
[9] = RKO cells, read-out: IC50, colorectal cancer cell line RKO
[10] = SW480 cells, read-out: IC50, colorectal cancer cell line SW480
[11] = SW-620, SW620 cells, read-out: IC50, colorectal cancer cell line SW620

Row | SMILES | IC50 (melanoma cell lines) | IC50 [1, 3] | IC50 [1, 4] | IC50 [1, 5] | IC50 [1, 6] | IC50 [1, 7] | IC50 [1, 8] | IC50 [1, 9] | IC50 [1, 10] | IC50 [1, 11] | IC50 [2]
1 | Cc1cc(C[S+]([O-])c2[nH]c3c(Cl)ccc(Cl)c3c(=O)c2C(=O)c2ccccc2)no1 (stereo not drawn) [Compound 88, 3-benzoyl-5,8-dichloro-2-(((5-methylisoxazol-3-yl)methyl)sulfinyl)quinolin-4(1H)-one] | > 2 µM | > 2 µM | > 2 µM | > 2 µM | > 2 µM | > 10 µM | > 2 µM | > 2 µM | > 2 µM | > 2 µM | > 2 µM
2 | CC(=O)c1c([S+]([O-])CN2C(=O)c3ccccc3C2=O)[nH]c2c(Cl)ccc(Cl)c2c1=O (stereo not drawn) [Compound 90, 2-(((3-acetyl-5,8-dichloro-4-oxo-1,4-dihydroquinolin-2-yl)sulfinyl)methyl)isoindoline-1,3-dione] | > 2 µM | > 2 µM | > 2 µM | > 2 µM | > 2 µM | > 10 µM | > 2 µM | > 2 µM | > 2 µM | > 2 µM | > 2 µM
3 | COC(=O)c1ccc(C[S+]([O-])c2[nH]c3c(Cl)ccc(Cl)c3c(=O)c2C(C)=O)cc1 (stereo not drawn) [Compound 91, methyl 4-(((3-acetyl-5,8-dichloro-4-oxo-1,4-dihydroquinolin-2-yl)sulfinyl)methyl)benzoate] | > 2 µM | 1.82 µM | > 2 µM | > 2 µM | > 2 µM | > 10 µM | > 2 µM | 1.41 µM | > 2 µM | > 2 µM | 1.74 µM
4 | COc1cccc2[nH]c(SCc3ccc(S(F)(F)(F)(F)F)cc3)c(C(C)=O)c(=O)c12 [Compound 92, 3-acetyl-5-methoxy-2-((4-(pentafluoro--sulfanyl)benzyl)thio)quinolin-4(1H)-one] | > 2 µM | > 2 µM | > 2 µM | > 2 µM | > 2 µM | > 10 µM | > 2 µM | > 2 µM | > 2 µM | > 2 µM | > 2 µM
5 | COc1cccc2[nH]c([S+]([O-])Cc3ccc(S(F)(F)(F)(F)F)cc3)c(C(C)=O)c(=O)c12 (stereo not drawn) [Compound 93, 3-acetyl-5-methoxy-2-((4-(pentafluoro--sulfanyl)benzyl)sulfinyl)quinolin-4(1H)-one] | > 2 µM | > 2 µM | > 2 µM | > 2 µM | > 2 µM | > 10 µM | > 2 µM | > 2 µM | > 2 µM | > 2 µM | > 2 µM
6 | COc1cccc2[nH]c([S+]([O-])Cc3cc(C)on3)c(C(C)=O)c(=O)c12 (stereo not drawn) [Compound 94, 3-acetyl-5-methoxy-2-(((5-methylisoxazol-3-yl)methyl)sulfinyl)quinolin-4(1H)-one] | > 2 µM | > 2 µM | > 2 µM | > 2 µM | > 2 µM | > 10 µM | > 2 µM | > 2 µM | > 2 µM | > 2 µM | 1.1 µM
7 | Cc1cc(C[S+]([O-])c2[nH]c3c(Br)ccc(Cl)c3c(=O)c2C(=O)C2CC2)no1 (stereo not drawn) [Compound 96, 8-bromo-5-chloro-3-(cyclopropanecarbonyl)-2-(((5-methylisoxazol-3-yl)methyl)sulfinyl)quinolin-4(1H)-one] | > 2 µM | 1.82 µM | 1.53 µM | > 2 µM | 1.87 µM | > 10 µM | > 2 µM | 1.58 µM | > 2 µM | 1.66 µM | 0.75 µM
8 | Cc1cc(C[S+]([O-])c2[nH]c3c(Cl)ccc(Cl)c3c(=O)c2C(=O)C2CC2)no1 (stereo not drawn) [Compound 97, 5,8-dichloro-3-(cyclopropanecarbonyl)-2-(((5-methylisoxazol-3-yl)methyl)sulfinyl)quinolin-4(1H)-one] | 1.03 µM | 1.36 µM | 1.25 µM | 1.35 µM | 1.42 µM | > 10 µM | 1.52 µM | 1.27 µM | 1.69 µM | 1.1 µM | 0.59 µM
9 | CC(=O)c1c([S+]([O-])Cc2ccc(C#N)s2)[nH]c2c(Br)ccc(Cl)c2c1=O (stereo not drawn) [Compound 98, 5-(((3-acetyl-8-bromo-5-chloro-4-oxo-1,4-dihydroquinolin-2-yl)sulfinyl)methyl)thiophene-2-carbonitrile] | 1.34 µM | 1.52 µM | 1.48 µM | 1.66 µM | 1.73 µM | > 10 µM | > 2 µM | 1.34 µM | > 2 µM | 1.76 µM | 1.23 µM
10 | CC(=O)c1c([S+]([O-])Cc2ccc(-n3cccn3)nc2)[nH]c2c(Br)ccc(Cl)c2c1=O (stereo not drawn) [Compound 99, 2-(((6-(1H-pyrazol-1-yl)pyridin-3-yl)methyl)sulfinyl)-3-acetyl-8-bromo-5-chloroquinolin-4(1H)-one] | 0.87 µM | 0.87 µM | 0.82 µM | 0.98 µM | 0.97 µM | > 10 µM | 1.45 µM | 0.95 µM | 1.3 µM | 0.92 µM | 0.63 µM
11 | CC(=O)c1c([S+]([O-])Cc2ccc(N)nc2)[nH]c2c(Br)ccc(Cl)c2c1=O (stereo not drawn) [Compound 100, 3-acetyl-2-(((6-aminopyridin-3-yl)methyl)sulfinyl)-8-bromo-5-chloroquinolin-4(1H)-one] | > 2 µM | > 2 µM | > 2 µM | > 2 µM | > 2 µM | > 10 µM | > 2 µM | > 2 µM | > 2 µM | > 2 µM | > 2 µM
12 | O=C(c1c([S+]([O-])Cc2ccc(SC(F)(F)F)cc2)[nH]c2c(Br)ccc(Cl)c2c1=O)C1CC1 (stereo not drawn) [Compound 101, 8-bromo-5-chloro-3-(cyclopropanecarbonyl)-2-((4-((trifluoromethyl)thio)benzyl)sulfinyl)quinolin-4(1H)-one] | > 2 µM | > 2 µM | 1.74 µM | 1.61 µM | > 2 µM | > 10 µM | > 2 µM | 1.91 µM | > 2 µM | > 2 µM | 1.99 µM
13 | CC(=O)c1c([S+]([O-])Cc2ccc(C(F)(F)F)nc2C)[nH]c2c(Br)ccc(Cl)c2c1=O (stereo not drawn) [Compound 102, 3-acetyl-8-bromo-5-chloro-2-(((2-methyl-6-(trifluoromethyl)pyridin-3-yl)methyl)sulfinyl)quinolin-4(1H)-one] | 0.86 µM | 1.16 µM | 1.22 µM | 1.24 µM | 1.33 µM | > 10 µM | 1.94 µM | 1.19 µM | 1.6 µM | 1.22 µM | 0.93 µM
14 | CC(=O)c1c([S+]([O-])Cc2ccc(NS(C)(=O)=O)cc2)[nH]c2c(Br)ccc(Cl)c2c1=O (stereo not drawn) [Compound 103, N-(4-(((3-acetyl-8-bromo-5-chloro-4-oxo-1,4-dihydroquinolin-2-yl)sulfinyl)methyl)phenyl)methane-sulfonamide] | > 2 µM | > 2 µM | > 2 µM | > 2 µM | > 2 µM | > 10 µM | > 2 µM | > 2 µM | > 2 µM | > 2 µM | > 2 µM
15 | CC(=O)c1c([S+]([O-])Cc2ccc(Cl)nc2)[nH]c2c(Br)ccc(Cl)c2c1=O (stereo not drawn) [Compound 104, 3-acetyl-8-bromo-5-chloro-2-(((6-chloropyridin-3-yl)methyl)sulfinyl)quinolin-4(1H)-one] | 0.88 µM | 1.24 µM | 1.32 µM | 1.29 µM | 1.49 µM | > 10 µM | > 2 µM | 1.15 µM | 1.58 µM | 1.36 µM | 0.84 µM
16 | COCCNc1ccc(C[S+]([O-])c2[nH]c3c(Br)ccc(Cl)c3c(=O)c2C(C)=O)cn1 (stereo not drawn) [Compound 105, 3-acetyl-8-bromo-5-chloro-2-(((6-((2-methoxyethyl)amino)pyridin-3-yl)methyl)sulfinyl)quinolin-4(1H)-one] | > 2 µM | > 2 µM | > 2 µM | > 2 µM | > 2 µM | > 10 µM | > 2 µM | > 2 µM | > 2 µM | > 2 µM | > 2 µM
17 | CC(=O)c1c([S+]([O-])Cc2nonc2C)[nH]c2c(Br)ccc(Cl)c2c1=O (stereo not drawn) [Compound 106, 3-acetyl-8-bromo-5-chloro-2-(((4-methyl-1,2,5-oxadiazol-3-yl)methyl)sulfinyl)quinolin-4(1H)-one] | > 2 µM | > 2 µM | > 2 µM | > 2 µM | > 2 µM | > 10 µM | > 2 µM | > 2 µM | > 2 µM | > 2 µM | > 2 µM
18 | CC(=O)c1c([S+]([O-])Cc2cnc3[nH]ccc3c2)[nH]c2c(Br)ccc(Cl)c2c1=O (stereo not drawn) [Compound 107, 2-(((1H-pyrrolo[2,3-b]pyridin-5-yl)methyl)sulfinyl)-3-acetyl-8-bromo-5-chloroquinolin-4(1H)-one] | > 2 µM | > 2 µM | > 2 µM | > 2 µM | > 2 µM | > 10 µM | > 2 µM | > 2 µM | > 2 µM | > 2 µM | > 2 µM
